Reference: the NIST ThermoML archive (doi:10.1016/j.jct.2013.09.009)
± gives the expanded uncertainty stated by the source.

Test: cn = amount concentration of the nth substance listed, in mol/dm3
Details: 298.15 K, 101 kPa, Liquid, c1 = 1

CNCC(=O)O [sarcosine] + O gave a speed of sound (Sing-around technique in a fixed-path interferometer) of 1561.4 ± 1.3 m/s and a mass density (Vibrating tube method) of 1023.26 ± 0.12 kg/m3.
